Experimental data published in patent publication US20090048214A1, “Methods for Treating Renal Tumors Using 2, 4-Pyrimidinediamine Drug and Prodrug Compounds” (RIGEL PHARMACEUTICALS, INC, priority 2006, published 2009).

How the values were obtained:
CCRF-CEM [1] = conditions: Leukemia, besylate salt
SR = conditions: Leukemia, besylate salt
A549/ATCC = conditions: Non-Small Cell Lung Cancer, besylate salt
EKVX = conditions: Non-Small Cell Lung Cancer, besylate salt
NCI-H522 [2] = conditions: NCI-H522, Non-Small Cell Lung Cancer; besylate salt
CCRF-CEM [3] = assay: cells; conditions: Homo sapiens, read-out: LC50
SF-268 = conditions: SF-268, CNS Cancer; besylate salt
MALME-3M = conditions: Melanoma, besylate salt
SK-MEL-28 [4] = conditions: SK-MEL-28, Melanoma; besylate salt
IGROV1 [5] = conditions: IGROV1, Ovarian Cancer; besylate salt
OVCAR-3 = conditions: OVCAR-3, Ovarian Cancer; besylate salt
K-562 = assay: cells; conditions: Homo sapiens
ACHN [6] = conditions: Renal Cancer, besylate salt
CAKI-1 = conditions: CAKI-1, Renal Cancer; besylate salt
SN12C = conditions: Renal Cancer, besylate salt
HS 578T [7] = conditions: Breast Cancer, besylate salt
MDA-MB-435 = conditions: MDA-MB-435, Breast Cancer; besylate salt
BT-549 = conditions: BT-549, Breast Cancer; besylate salt
NCI-H226 = assay: cells; conditions: Homo sapiens
NCI-H23 = assay: cells; conditions: Homo sapiens, NCI-H23, read-out: LC50
NCI-H522 [8] = assay: cells; conditions: Homo sapiens, NCI-H522, read-out: LC50
HCT-116 = assay: cells; conditions: Homo sapiens, HCT-116, read-out: LC50
SF-539 = assay: cells; conditions: Homo sapiens
SNB-75 = assay: cells; conditions: Homo sapiens
M14 = assay: cells; conditions: Homo sapiens
SK-MEL-28 [9] = assay: cells; conditions: Homo sapiens
SK-MEL-5 = assay: cells; conditions: Homo sapiens
UACC-257 = assay: cells; conditions: Homo sapiens
IGROV1 [10] = assay: cells; conditions: Homo sapiens
OVCAR-4 = assay: cells; conditions: Homo sapiens
OVCAR-5 = assay: cells; conditions: Homo sapiens
SK-OV-3 = assay: cells; conditions: Homo sapiens
ACHN [11] = assay: cells; conditions: Homo sapiens
UO-31 = assay: cells; conditions: Homo sapiens
DU-145 = assay: cells; conditions: Homo sapiens, DU-145, read-out: LC50
HS 578T [12] = assay: cells; conditions: Homo sapiens

Work on `COc1cc(Nc2ncc(F)c(Nc3ccc4c(n3)NC(=O)C(C)(C)O4)n2)cc(OC)c1OC` [Compound 1] yielded a TGI (CCRF-CEM [1]) greater than 1.00E−4, a TGI (SR) greater than 1.00E−4 and a TGI (A549/ATCC) greater than 1.00E−4. For the same compound, the TGI (EKVX) was greater than 1.00E−4, the TGI (NCI-H522 [2]) was greater than 1.00E−4 and the CC50 (CCRF-CEM [3]) was greater than 100 µM. For the same compound, the TGI (SF-268) was greater than 1.00E−4, the TGI (MALME-3M) was greater than 1.00E−4 and the TGI (SK-MEL-28 [4]) was greater than 1.00E−4. It also gave a TGI (IGROV1 [5]) greater than 1.00E−4, a TGI (OVCAR-3) greater than 1.00E−4 and an IC50 (K-562; K562, read-out: G150) greater than 100 µM. The CC50 (K-562; K562, read-out: LC50) was greater than 100 µM, the TGI (ACHN [6]) was greater than 1.00E−4 and the TGI (CAKI-1) was 2.44E−6. The TGI (SN12C) was greater than 1.00E−4, the TGI (HS 578T [7]) was greater than 1.00E−4 and the TGI (MDA-MB-435) was greater than 1.00E−4. For the same compound, the TGI (BT-549) was greater than 1.00E−4, the IC50 (NCI-H226; NCI-H226, read-out: G150) was 0.497 µM and the CC50 (NCI-H226; NCI-H226, read-out: LC50) was greater than 100 µM. The CC50 (NCI-H23) was greater than 100 µM, the CC50 (NCI-H522 [8]) was greater than 100 µM and the CC50 (HCT-116) was greater than 100 µM. The IC50 (SF-539; SF-539, read-out: G150) was 0.605 µM, the CC50 (SF-539; SF-539, read-out: LC50) was greater than 100 µM and the IC50 (SNB-75; SNB-75, read-out: G150) was 0.871 µM. For the same compound, the CC50 (SNB-75; SNB-75, read-out: LC50) was greater than 100 µM, the IC50 (M14; M14, read-out: G150) was greater than 100 µM and the CC50 (M14; M14, read-out: LC50) was greater than 100 µM. The IC50 (SK-MEL-28 [9]; SK-MEL-28, read-out: G150) was greater than 100 µM, the CC50 (SK-MEL-28 [9]; SK-MEL-28, read-out: LC50) was greater than 100 µM and the IC50 (SK-MEL-5; SK-MEL-5, read-out: G150) was greater than 100 µM. The CC50 (SK-MEL-5; SK-MEL-5, read-out: LC50) was greater than 100 µM, the IC50 (UACC-257; UACC-257, read-out: G150) was greater than 100 µM and the CC50 (UACC-257; UACC-257, read-out: LC50) was greater than 100 µM. It also gave an IC50 (IGROV1 [10]; IGROV-1, read-out: G150) of 0.796 µM, a CC50 (IGROV1 [10]; IGROV-1, read-out: LC50) greater than 100 µM and an IC50 (OVCAR-4; OVCAR-4, read-out: G150) greater than 100 µM. For the same compound, the CC50 (OVCAR-4; OVCAR-4, read-out: LC50) was greater than 100 µM, the IC50 (OVCAR-5; OVCAR-5, read-out: G150) was greater than 100 µM and the CC50 (OVCAR-5; OVCAR-5, read-out: LC50) was greater than 100 µM. The IC50 (SK-OV-3; SK-OV-3, read-out: G150) was 0.429 µM, the CC50 (SK-OV-3; SK-OV-3, read-out: LC50) was greater than 100 µM and the IC50 (ACHN [11]; read-out: G150) was 1.24 µM. The CC50 (ACHN [11]; read-out: LC50) was greater than 100 µM, the IC50 (UO-31; UO-31, read-out: G150) was 0.596 µM and the CC50 (UO-31; UO-31, read-out: LC50) was greater than 100 µM. It also gave a CC50 (DU-145) greater than 100 µM, an IC50 (HS 578T [12]; read-out: G150) of 1.19 µM and a CC50 (HS 578T [12]; read-out: LC50) greater than 100 µM.
